# Results reported in ChEMBL document CHEMBL5724796, “Tm Shift (DSF) assay results for EUbOPEN Chemogenomics Library” (2024).
# Residues, ends and D or L forms follow the SMILES beside them.
# Columns and labels:
# [1] = target: T1, Peregrin (Homo sapiens) (UniProt P55201); conditions: Compound concentration 20.0 uM
# T1 sequence (whole entry): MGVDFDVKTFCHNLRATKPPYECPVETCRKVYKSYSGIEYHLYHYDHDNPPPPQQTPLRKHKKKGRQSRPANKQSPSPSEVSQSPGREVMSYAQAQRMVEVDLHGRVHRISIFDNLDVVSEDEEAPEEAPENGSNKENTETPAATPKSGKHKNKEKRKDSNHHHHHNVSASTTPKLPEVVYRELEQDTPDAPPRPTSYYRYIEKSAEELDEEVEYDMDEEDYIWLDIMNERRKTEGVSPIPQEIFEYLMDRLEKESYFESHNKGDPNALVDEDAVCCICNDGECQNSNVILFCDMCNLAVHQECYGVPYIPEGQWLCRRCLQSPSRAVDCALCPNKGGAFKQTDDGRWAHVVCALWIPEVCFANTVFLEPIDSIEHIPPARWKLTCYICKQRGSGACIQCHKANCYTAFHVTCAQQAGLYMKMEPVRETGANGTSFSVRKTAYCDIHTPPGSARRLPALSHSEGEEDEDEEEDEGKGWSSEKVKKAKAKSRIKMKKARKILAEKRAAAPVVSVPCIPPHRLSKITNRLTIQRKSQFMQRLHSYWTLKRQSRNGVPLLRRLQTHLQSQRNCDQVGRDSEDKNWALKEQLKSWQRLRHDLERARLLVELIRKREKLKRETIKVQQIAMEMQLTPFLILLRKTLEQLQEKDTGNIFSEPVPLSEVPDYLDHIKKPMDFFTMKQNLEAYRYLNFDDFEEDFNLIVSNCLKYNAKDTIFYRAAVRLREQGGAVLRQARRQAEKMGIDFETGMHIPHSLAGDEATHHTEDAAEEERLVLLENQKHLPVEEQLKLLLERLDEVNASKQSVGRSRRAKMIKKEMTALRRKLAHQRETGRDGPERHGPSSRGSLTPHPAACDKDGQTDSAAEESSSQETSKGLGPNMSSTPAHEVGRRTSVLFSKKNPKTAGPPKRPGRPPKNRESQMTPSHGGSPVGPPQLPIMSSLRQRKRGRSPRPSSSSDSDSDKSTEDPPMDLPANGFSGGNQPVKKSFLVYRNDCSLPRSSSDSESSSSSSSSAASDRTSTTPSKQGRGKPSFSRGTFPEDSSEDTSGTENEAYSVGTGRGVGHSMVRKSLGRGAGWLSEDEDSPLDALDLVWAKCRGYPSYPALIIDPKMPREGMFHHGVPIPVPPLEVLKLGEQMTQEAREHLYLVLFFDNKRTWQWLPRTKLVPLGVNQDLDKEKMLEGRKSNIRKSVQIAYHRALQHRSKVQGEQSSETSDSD
# [2] = target: Fibroblast growth factor receptor 2 (Homo sapiens) (UniProt P21802); conditions: Compound concentration 20.0 uM
# Fibroblast growth factor receptor 2 (Homo sapiens), sequence (P21802 22-821 limits assumed): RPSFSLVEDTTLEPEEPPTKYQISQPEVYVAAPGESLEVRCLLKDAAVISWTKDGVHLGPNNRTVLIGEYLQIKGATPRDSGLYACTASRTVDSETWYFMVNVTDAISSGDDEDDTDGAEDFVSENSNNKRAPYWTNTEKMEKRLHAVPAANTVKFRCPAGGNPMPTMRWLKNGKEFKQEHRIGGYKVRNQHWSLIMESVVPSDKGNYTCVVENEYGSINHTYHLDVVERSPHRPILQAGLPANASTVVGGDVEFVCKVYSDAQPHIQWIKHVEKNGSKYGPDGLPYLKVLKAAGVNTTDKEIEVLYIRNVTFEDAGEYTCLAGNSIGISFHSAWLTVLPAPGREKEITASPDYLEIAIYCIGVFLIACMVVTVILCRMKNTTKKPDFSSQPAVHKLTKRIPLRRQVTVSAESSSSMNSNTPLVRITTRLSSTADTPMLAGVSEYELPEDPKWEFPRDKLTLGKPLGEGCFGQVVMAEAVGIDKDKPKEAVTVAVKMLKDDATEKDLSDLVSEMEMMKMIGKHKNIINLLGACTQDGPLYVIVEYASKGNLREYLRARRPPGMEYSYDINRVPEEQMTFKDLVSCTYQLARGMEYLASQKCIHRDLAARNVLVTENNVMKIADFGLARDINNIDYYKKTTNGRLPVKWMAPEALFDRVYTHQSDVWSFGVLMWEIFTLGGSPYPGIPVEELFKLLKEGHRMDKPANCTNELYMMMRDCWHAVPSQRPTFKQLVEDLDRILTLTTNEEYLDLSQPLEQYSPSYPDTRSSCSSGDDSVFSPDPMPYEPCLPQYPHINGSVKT
# Description: Thermal Shift Assay. Domain: start/stop: T457-E768
SMILES,ΔTm [1],ΔTm [2]
NC(=O)C(CCCN=C(N)CCl)NC(=O)c1ccccc1 (stereo unspecified),1.58 °C,-0.58 °C
CS(=O)(=O)c1ccc(Oc2cc(F)cc(C#N)c2)c2c1[C@H](O)[C@H](F)[C@@H]2F,2.16 °C,0.61 °C
Cc1cc(C)c(CNC(=O)c2cc(Cl)c3c(c2C)O[C@@](C)([C@H]2CC[C@H](N(C)C)CC2)O3)c(=O)[nH]1,-0.71 °C,-1.83 °C
CS(=O)(=O)c1ccc(Oc2cc(F)cc(C#N)c2)c2c1C(O)C(F)C2 (stereo unspecified),0.86 °C,-0.57 °C
CCCSc1nc(N[C@@H]2C[C@H]2c2ccc(F)c(F)c2)c2nnn([C@@H]3C[C@H](OCCO)[C@@H](O)[C@H]3O)c2n1,0.55 °C,-0.32 °C
Cc1cc(C)nc(SCC(=O)Nc2ncc(Cc3cccc4ccccc34)s2)n1,3 °C,-1.85 °C
CNC(=O)O[C@H]1COc2ccc(N3CCN(C4COC4)CC3)cc2[C@@H]1NC(=O)c1ccc(F)cc1,-1.56 °C,0.9 °C
CCOC(=O)Oc1c(OC)cc(C(=O)O[C@H]2C[C@H]3CN4CCc5c([nH]c6cc(OC)ccc56)[C@@H]4C[C@H]3[C@@H](C(=O)OC)[C@@H]2OC)cc1OC,2.92 °C,-1.05 °C
C[C@H]1CO[C@@H]2Cn3cc(C(=O)NCc4ccc(F)cc4F)c(=O)c(O)c3C(=O)N12,2.22 °C,0.45 °C
CC(C)Oc1ccc2c(=O)[nH]c3sccc3c2c1,-0.93 °C,0.02 °C
O=C(c1ccc2c(ccn2-c2ccc(F)cc2)c1)N1CC(N2CCN(C(=O)c3nccs3)CC2)C1,-2.53 °C,-0.43 °C
C[C@]12CCCN1CC1=NNC(=O)c3cc(F)cc4[nH]c2c1c34,-1.02 °C,0.9 °C
O=C(NCCCOc1ccc2[nH]c(=O)ccc2c1)N(C1CC1)[C@@H]1CCCC[C@H]1O,1.1 °C,0.24 °C
Fc1ccc(C(OCCN2CCN(CCCc3ccccc3)CC2)c2ccc(F)cc2)cc1,0.78 °C,-0.47 °C
CCS(=O)(=O)N1CC(CC#N)(n2cc(-c3ncnc4[nH]ccc34)cn2)C1,-1.09 °C,1.48 °C
COc1ccc(C2C(C#N)=C(N)OC3=C2C(=O)CC(c2cccc4ccccc24)C3)cc1 (stereo unspecified),0.11 °C,-0.92 °C
O=C(CN1CCN(C(=O)c2ccco2)CC1)Nc1cc(C(F)(F)F)ccc1Cl,-0.04 °C,0.27 °C
CS(=O)(=O)Nc1ccc2oc3c(OC(F)F)ccc(C(=O)Nc4c(Cl)cncc4Cl)c3c2c1,0.46 °C,-0.38 °C
CNC(=O)c1cc(Nc2ccnc(Nc3ccc(CCNC(=O)OC(C)(C)C)cc3)n2)n[nH]1,-1.87 °C,0.64 °C
C[C@@H](Oc1ccc(CNC(=O)c2cccnc2Oc2ccc3c(c2)OCO3)c(F)c1)C(=O)O,3.08 °C,0.14 °C
CC(=O)N[C@@H](CC(C)C)C(=O)N[C@@H](CCC(=O)O)C(=O)N[C@@H](Cc1cnc[nH]1)C(=O)N[C@H](C=O)CC(=O)O (Ac-LEHD-aldehyde),-1.22 °C,0.53 °C
CNCc1ccc(-c2[nH]c3cc(F)cc4c3c2CCNC4=O)cc1,3.14 °C,-0.11 °C
COc1ncc(C)cc1CC[C@@](O)(CC(=O)O)C(=O)O,1.67 °C,0.32 °C
Cn1c(=O)cc(N2CCC[C@@H](N)C2)n(Cc2cc(F)ccc2C#N)c1=O,0.76 °C,0.72 °C
Cc1n[nH]c(C)c1Cc1sc2c(c1C(=O)N1C[C@H](O)CO1)c(=O)n(C)c(=O)n2CC(C)C,2.27 °C,0.22 °C
CC(=O)N[C@@H](C)C(=O)N[C@@H](CCC(=O)O)C(=O)N[C@H](C(=O)N[C@@H](C=O)CC(=O)O)C(C)C,-1.79 °C,0.19 °C
COc1ccccc1C(=O)Nc1cc2c(cc1N1CCCCC1)n(C)c(=O)n2C,–,0.52 °C
CN1CCN(c2ccc3nc(-c4c(N)c5c(F)cccc5[nH]c4=O)[nH]c3c2)CC1,-0.73 °C,–
COc1cc(Nc2ncc(F)c(Nc3ccc4c(n3)NC(=O)C(C)(C)O4)n2)cc(OC)c1OC,-0.89 °C,–
COc1ccccc1C(=O)Nc1cc2c(cc1N1CCNC[C@H]1C)n(C)c(=O)n2C,–,0.68 °C
